{"source": "patent US20250170072A1", "about": "“NOVEL COMPOSITIONS FOR REDUCING METHANE PRODUCTION IN RUMINANT ANIMALS” (FUTUREFEED PTY LTD, priority 2022, published 2025)", "key": {"[1]": {"assay": "Bromoform in water", "type": "physicochemical", "conditions": "deionised water", "procedure": "Manufactured synthetic CHBr3, 98% purity, and stabilized with 2-methyl-2-butene (Sigma-Aldrich, product no: 241032) was used for the preparation of the four excipients. The Corn Oil, Molasses and Water were made with similar protocols as per the Canola Oil in Example 4. Briefly, CHBr3 was dissolved and homogenised into either retail corn oil, molasses, or deionised water and homogenised by repeated inversion and left to stabilise overnight prior to achieve a concentration of 3.0±0.10 mg/g. Cyclodextrin was prepared as described previously (patent WO 96/14062, PCT AU95/00733). Briefly, CHBr3 was added to α-cyclodextrin (Sigma-Aldrich, product no: 779008) aqueous solution and mixed overnight. The solid was then separated, washed, then dried. The CHBr3 concentration of the dried powder was determined and then diluted with additional α-cyclodextrin to adjust the CHBr3 concentration to 3.0±0.10 mg/g. TGP, CH4, H2 and CO2 production, IVDDM, and VFA were determined using the protocol as described in Example 4."}, "[2]": {"test_system": "rumen fluid", "conditions": "formulated in DMSO, cited from earlier work"}, "[3]": {"test_system": "in vitro fermentation", "conditions": "doses of 0.25, 1 and 1.5% of feed dry matter; cited from earlier work"}, "[4]": {"conditions": "at 20 degrees; cited from earlier work"}}, "note": "Where two headings read alike, the source gives them in different places."}
{"molecule": "BrC(Br)Br", "note": "[bromoform, tribromomethane]", "values": [{"measurement": "concentration of bromoform prepared in water", "setting": "[1]", "value": "3.0±0.10 mg bromoform per gram deionised water"}, {"measurement": "methane production in in vitro fermentation", "setting": "[2]; 1 μM", "value": "does not significantly inhibit"}, {"measurement": "methane production in in vitro fermentation", "setting": "[2]; doses of 5 μM, 10 μM and 25 μM", "value": "significantly inhibits"}, {"measurement": "methane production", "setting": "[3]", "value": "no effect"}, {"measurement": "solubility in water", "setting": "[4]", "value": "less than 0.1 g bromofrm per 100 g water"}]}
